Patent US20130095512A1, “DEVICE FOR SORTING, CLASSIFYING, AND ASSAYING PARTITION BEHAVIOR OF CELL MEMBRANE BIOMOLECULES AND METHODS BASED THEREON” (Cornell University, priority 2010, published 2013)

Legend:
Assay type in all cases: physicochemical
[1] = Lipid diffusion measurements by fluorescence recovery after photobleaching (FRAP) in supported lipid bilayers
Protocol: Lipid Diffusion Measurements. Diffusion coefficients of all biomolecule targets in each phase were determined by fluorescence recovery after photobleaching (FRAP). To measure the diffusion coefficient and mobile fraction of the biomolecule in a supported bilayer, liposomes of the same composition used in experiments were prepared with 0.1% of either BODIPY DHPE or GM1. 0.5 mg/ml liposomes were incubated in a PDMS well attached to a piranha cleaned slide. Lipid vesicles were allowed to incubate for 5 minutes, before being rinsed with buffer for one minute. In the case of the POPC-rich phase bilayer, the entire process is at room temperature. In the case of the raft phase bilayer, the prepared vesicle solutions were heated to 65° C. (a temperature above the miscibility transition temperature of the lipid mixture). The warm vesicle solutions were added to wells heated to 65° C. and were later rinsed with the buffer at 65° C. Following the formation of the raft phase bilayer, the heated sample was gently cooled down to room temperature prior measuring the diffusion coefficient.
To aid in focusing on the plane of the bilayer on the microscope, the bilayer was scratched with a dissection tool to remove a thin line of bilayer. Following the scratching step, the bilayer was rinsed again for one minute with buffer to remove any lipids in the bulk that were removed by scratching. A 20 μm diameter spot in the supported lipid bilayer was bleached with a laser for 200 ms. The recovery of the photobleached spot was recorded for 10 minutes for the POPC-rich phase sample and one hour for the raft phase sample. The fluorescence intensity of the bleached spot was determined after background subtraction and normalization for each image. The recovery data was fit using the method of Soumpasis (Zheng Y Z, Foster L J. Biochemical and Proteomic Approaches for the Study of Membrane Microdomains. Proteomics. 2009; 72:12-22). The diffusion coefficient, D, was then calculated using the following equation: D=w^2/4t1/2, where w is the full width at half-maximum of the Gaussian profile of the focused beam. The average diffusion coefficient and mobile fractions were determined from three separate samples of each sample and are listed in Table 2. These values are in line with numerous reports of lipid diffusion in supported bilayers.

[2] = Partitioning kinetics of membrane biomolecules in patterned two-phase coexistent supported lipid bilayers in a microfluidic channel (BPD); conditions: for K (eq) partition coefficient: concentration in raft phase over POPC-rich phase from fluorescence intensity after equilibrating 2 hrs; for k+ (association rate constant): from POPC-rich phase (70/20/10 POPC/PSM/Chol) to raft phase, first order, initial slope of NR-α plot; for k− (dissociation rate constant): from raft phase to POPC-rich phase, reversed flow after 2 hrs equilibration; for K (=k+/k−) partition coefficient: ratio of association/dissociation kinetic parameters; for partitioning between raft phase and POPC-rich phase at equilibrium: flow stopped, equilibrated for 2 hrs
Excerpt: Preparation of patterned two-phase coexistent lipid bilayers in a microfluidic device. Supported lipid bilayers (SLBs) are commonly formed by the rupture and self-assembly of large unilamellar lipid vesicles in solution onto glass (Brian, A. A.; McConnell, H. M. Proc. Natl. Acad. Sci. USA 1984, 81, 6159; Johnson, J. M.; Ha, T.; Chu, S.; Boxer, S. G. Biophysical Journal 2002, 83, 3371) or other oxidized supports (Richter, R. P.; Borat, R.; Brisson, A. R. Langmuir 2006, 22, 3497), as illustrated in FIG. 17a. A bilayer is formed during laminar flow conditions instead of under stagnant incubation. Laminar flow is an advantage for patterning heterogeneous bilayers in microfluidic channels because reagents follow streamlines with minimal mixing (Kam, L.; Boxer, S. G. Journal of the American Chemical Society 2000, 122, 12901). Thus, lipid vesicles of different compositions can be sent through the channel on different streamlines and upon rupture will form contiguous, parallel bilayers of different compositions with stable interfaces, if the compositions are chosen so that they are phase stable.
Formation of contiguous patterned membrane and loading and transport of membrane-bound biomolecules. […] A contiguous lipid membrane is formed with POPC-rich phase (70/20/10 molar ratio of POPC/PSM/Chol), raft phase (60/40 molar ratio of PSM/Chol), and the membrane loaded with 1 mol % of Alexa-594 head-labeled GM1 and 1 mol % of head-labeled BODIPY-DHPE doped in the POPC-rich phase.
Partitioning kinetic measurements by monitoring species' concentrations in the raft phase with time. […] The partitioning assay was carried out in three stages: association stage, equilibrium stage, and dissociation stage (FIGS. 13a-c). The experimental procedure and analyses are somewhat analogous to the measurement of adsorption/desorption binding kinetics by surface plasmon resonance (SPR) (Wegner, G. J.; Wark, A. W.; Lee, H. J.; Codner, E.; Saeki, T.; Fang, S.; Corn, R. M. Analytical Chemistry 2004, 76, 5677), except here there is a 2-D planar geometry and observing association/dissociation kinetics of membrane-bound biomolecules to/from a lipid membrane phase along an interface. To obtain association kinetics from POPC-rich phase to raft phase, target species in the POPC-rich phase were brought to a pristine raft phase and the amount entering into the raft phase in the control volume was monitored with time (FIG. 13a, stage 1). After most of the species initially loaded in the channel entered into the main partitioning channel, the next step was to stop the convective flow and wait until the system equilibrated (FIG. 13a, stage 2). Equilibration was confirmed when the concentration profile no longer changed across the channel. Finally, to obtain dissociation kinetics, the net amount of species leaving the raft phase was monitored when the hydrodynamic flow was reversed and fresh POPC-rich phase membrane could be monitored for the re-association of molecules now moving from the raft phase back into the POPC-rich phase (FIG. 13a, stage 3). Three different molecules were tested: Alex594-head-labeled GM1, BODIPY-tail-labeled GM1, and head-labeled BODIPY-DHPE.
Theory of partitioning kinetic analyses. The association/dissociation kinetics of fluorescently-labeled species was analyzed into/from the raft phase using a mass-balance approach. A control volume used for the mass balance is illustrated in FIG. 14. The accumulation of species in the raft phase over time can be represented as:
Association kinetic analysis. To obtain the association kinetic information from the POPC-rich phase to the raft phase, the experiment was operated in such a way so that only the association term, r+, is important and the dissociation term and the convective flow rate terms can be neglected in Equation 1. At the beginning of the experiment, a hydrodynamic force was provided to move the species into the control volume (the white box in FIG. 14). […]

[3] = Stamped patterned bilayers, electric field-induced migration and partitioning into raft regions; conditions: stamped raft regions in fluid phase bilayer, FIG. 3
Excerpt: In one embodiment, the separation bilayer is patterned with multiple phases (raft and non-raft) that interact with species differentially to effect a separation analogous to a chromatographic separation strategy (FIG. 3). Here differently partitioning behavior serves to change the mobility of one species relative to the other such that they become separated. FIG. 3 illustrates how patterned bilayers of a BPD can be made and used for separation purposes. In one embodiment of the method for making a BPD, the steps can comprise: (A) Forming a bilayer via vesicle fusion of one composition, then (B) selectively remove by stamping regions where the second phase is desired. Back filling with the second vesicles (B). Stamping out a thin section of bilayer where a third vesicle formulation fuses; these vesicles contain the species to be separated (denoted by the mixture of light and dark circles arranged in a thin rectangle). An electric field can then be applied to induce the mixed charged species to migrate through the bilayer and partition as they sample the different regions of the bilayer. […] The GM1 is labeled with Alexa-594, which makes it, and the rafts in which they are located, appear bright.

[4] = Partitioning in the BPD on CTB binding; conditions: CTB binds to GM1
Excerpt: βCD-mediated efflux is used to disrupt raft microdomains and stimulate a change in GM1 partitioning. Changes in partitioning of both GM1 and PLAP can also be induced by binding to CTB and/or antibodies (Kahya N, Brown D A, Schwille P. Raft Partitioning and Dynamic Behavior of Human Placental Alkaline Phosphatase in Giant Unilamellar Vesicles. Biochemistry. 2005; 44:7479-89). Antibody binding is known to cause several-fold enrichment in the raft phase of both targets and detection will be straightforward using fluorescence labels or conjugates.

[5] = POPC-rich phase (70/20/10 POPC/PSM/Chol)

BODIPY®FL C5-ganglioside GM1 [Tail-labeled GM1]
Diffusion coefficient [1, 5]: 0.82 μm^2/s
Diffusion coefficient ([1]; Raft phase (60/40 PSM/Chol)): 0.08 μm^2/s
K (eq) partition coefficient [2]: 0.75
k+ (association rate constant) [2]: 0.64 ± 0.07 μm/min
k− (dissociation rate constant) [2]: 0.72 ± 0.05 μm/min
K (=k+/k−) partition coefficient [2]: 0.89

bovine brain asialoganglioside-GM1 labeled with Alexa Fluor® 594 hydrazide [Head-labeled GM1]
partitioning into raft regions [3]: preferential partitioning of GM1 lipids into raft regions
enrichment in the raft phase on CTB binding [4]: enrichment was observed
Diffusion coefficient ([1]; POPC-rich phase): 0.77 μm^2/sec
Diffusion coefficient [1, 5]: 0.77 μm^2/s
Diffusion coefficient ([1]; Raft phase (60/40 PSM/Chol)): 0.06 μm^2/s
rate for a molecule to diffuse to the interface ([1]; diffusion coefficient/distance, 1 μm away in the POPC-rich phase, rough estimate): 0.77 μm/sec
Diffusion coefficient ([1]; raft phase): 0.06 μm^2/sec
diffusion rate from the interface into the middle of the raft patch ([1]; ~100 nm, raft phase, estimate): 0.6 μm/sec
K (eq) partition coefficient [2]: 1.96
partitioning between raft phase and POPC-rich phase at equilibrium [2]: Most of GM1 partitions to the raft phase
k+ (association rate constant) [2]: 1.53 ± 0.03 μm/min
rate of the molecule to pass across the interface ([2]; from Table 1): ~0.025 µm/s
k− (dissociation rate constant) [2]: 0.85 ± 0.03 μm/min
K (=k+/k−) partition coefficient [2]: 1.8

CCCCCCCCCCCCCCCC(=O)OC[C@H](COP(=O)(O)OCCNC(=O)CCc1ccc2n1[B-](F)(F)[N+]1=C(C)C=C(C)C1=C2)OC(=O)CCCCCCCCCCCCCCC.CCN(CC)CC [Head-labeled BODIPY-DHPE, N-(4,4-difluoro-5,7-dimethyl-4-bora-3a,4a-diaza-s-indacene-3-propionyl)-1,2-dihexadecanoyl-sn-glycero-3-phosphoethanolamine, triethylammonium salt]
partitioning into raft regions [3]: exclusion of BODIPY DHPE lipids from rafts regions
Diffusion coefficient [1, 5]: 0.63 μm^2/s
Diffusion coefficient ([1]; Raft phase (60/40 PSM/Chol)): 0.05 μm^2/s
K (eq) partition coefficient [2]: 0.6
partitioning between raft phase and POPC-rich phase at equilibrium [2]: most of BODIPY-DHPE remains in the POPC-rich phase
k+ (association rate constant) [2]: 0.57 ± 0.08 μm/min
k− (dissociation rate constant) [2]: 0.98 ± 0.04 μm/min
K (=k+/k−) partition coefficient [2]: 0.58
